Measurements from PubChem BioAssay (NCI).
“And” between values parts separate entries of the source, which are not always exact repeats. Identical values can stand only once.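 Exposure lasted 48 hours, with cells grown in 96-well plates and compounds tested at five concentrations. GI50: concentration for 50% inhibition of growth. TGI: total growth inhibition.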

Assays:
Assay in all cases: NCI tumour cell line growth inhibition, 48 h
A498 renal = system: A498 renal
CAKI-1 renal = system: CAKI-1 renal
HCT-15 colon = system: HCT-15 colon
HL-60(TB) leukemia = system: HL-60(TB) leukemia
HOP-62 NSCLC = system: HOP-62 NSCLC
SF-295 CNS = system: SF-295 CNS
SK-MEL-28 melanoma = system: SK-MEL-28 melanoma
SW-620 colon = system: SW-620 colon
TK-10 renal = system: TK-10 renal
NCI-H226 lung = system: NCI-H226 lung

SMILES | GI50 (A498 renal) | TGI (A498 renal) | GI50 (CAKI-1 renal) | TGI (CAKI-1 renal) | GI50 (HCT-15 colon) | TGI (HCT-15 colon) | GI50 (HL-60(TB) leukemia) | TGI (HL-60(TB) leukemia) | GI50 (HOP-62 NSCLC) | TGI (HOP-62 NSCLC) | GI50 (SF-295 CNS) | TGI (SF-295 CNS) | GI50 (SK-MEL-28 melanoma) | TGI (SK-MEL-28 melanoma) | GI50 (SW-620 colon) | TGI (SW-620 colon) | GI50 (TK-10 renal) | TGI (TK-10 renal) | TGI (NCI-H226 lung) | GI50 (NCI-H226 lung)
C[n+]1ccc(-c2c3nc(c(-c4ccc5c(ccc[n+]5C)c4)c4ccc([nH]4)c(-c4cc[n+](C)cc4)c4nc(c(-c5ccc6c(ccc[n+]6C)c5)c5ccc2[nH]5)C=C4)C=C3)cc1 | 27.2 µM | > 50 µM | > 50 µM | > 50 µM | > 50 µM | > 50 µM | 9.19 µM | 17.2 µM | 13.3 µM | > 50 µM | 40.5 µM | > 50 µM | 28.5 µM | > 50 µM | > 50 µM | > 50 µM | 10.1 µM | > 50 µM | – | –
C=C1C(=O)OC2/C=C(\C)C3OC3/C=C(/C(=O)OC)C(OC(C)=O)C(OC(=O)C(C)(O)C(C)OC(C)=O)C12 (centres undefined) | – | 11.5 µM | – | 16.3 µM | – | > 34.1 µM | – | – | – | 37.5 µM | – | 21.5 µM | – | 6.14 µM | – | 2.25 µM | – | 4.21 µM | 15.7 µM | –
CC1=C(C(=O)Nc2ccccc2C)C(c2ccc(C3C(C(=O)Nc4ccccc4C)=CNC=C3C(=O)Nc3ccccc3C)cc2)C(C(=O)Nc2ccccc2C)=C(C)N1 | – | 41.7 µM | – | 45.7 µM | – | 41 µM | – | 29.9 µM | – | 48.7 µM | – | 37.7 µM | – | 36.3 µM | – | 32.6 µM | – | > 100 µM | 33.5 µM | –
CC(=O)OCC1OC(n2c(-c3ccccc3)c(C)c(C)c(C#N)c2=S)C(OC(C)=O)C(OC(C)=O)C1OC(C)=O (centres undefined) | – | > 100 µM | – | > 50 µM | – | > 100 µM | – | > 100 µM | 14.3 µM and > 100 µM | 40.4 µM and > 100 µM | – | > 50 µM and 66.4 µM | – | > 100 µM | 22.9 µM and > 100 µM | > 100 µM | 48.6 µM and > 100 µM | > 100 µM | > 100 µM | –
CC([O-])C(=O)[O-].NCC1CCC1CN.[Pt+4] (centres undefined) | – | – | > 10 µM | > 10 µM | > 10 µM | > 10 µM | > 10 µM | > 10 µM | > 10 µM | > 10 µM | > 10 µM | > 10 µM | > 10 µM | > 10 µM | > 10 µM | > 10 µM | > 10 µM | > 10 µM | > 10 µM | > 10 µM
CCCCCCCCCC(CCCC(O)CC(=O)O)OC1OC(COC2OC(C)C(O)C(O)C2O)C(O)C(O)C1OC1OC(CO)C(O)C(O)C1OC1OC(C)C(O)C(O)C1O (centres undefined) | > 40 µM | > 40 µM | > 40 µM | > 40 µM | > 40 µM | > 40 µM | > 40 µM | > 40 µM | > 40 µM | > 40 µM | > 40 µM | > 40 µM | > 40 µM | > 40 µM | > 40 µM | > 40 µM | > 40 µM | > 40 µM | > 40 µM | > 40 µM
CCC(/C(=N\Nc1c(Cl)cc(Cl)cc1Cl)c1ccccc1)n1ccnc1C (centres undefined) | – | 29.2 µM | – | 25.8 µM | – | 24.4 µM | – | 14.6 µM | – | – | – | 24.7 µM | – | 29.7 µM | – | 35.7 µM | – | 28.2 µM | 35 µM | –
O=C1c2cccnc2C(=O)c2c1c(C(=O)OCCN1CCOCC1)c1ccccn21 | 0.0236 µM | 1.65 µM | < 0.0184 µM | 14.6 µM | – | – | 0.0789 µM | 3.21 µM | < 0.01 µM | < 0.0142 µM | 0.0197 µM | 1.05 µM | 0.0458 µM | 2.12 µM | < 0.01 µM | 3.23 µM | 0.163 µM | 2.72 µM | 0.696 µM | < 0.017 µM
CCN1CCN(C(=O)[C@]23CCC(C)(C)C[C@@H]2C2=CC[C@@H]4[C@@]5(C)C/C(=C/c6cccnc6)C(=O)C(C)(C)[C@@H]5CC[C@@]4(C)[C@]2(C)CC3)CC1 | 1.66 µM | 3.53 µM | 2.08 µM | 11.8 µM | 1.08 µM | 2.71 µM | 0.443 µM | 3.34 µM | 1.88 µM | 3.75 µM | 1.66 µM | 3.15 µM | 1.48 µM | 2.83 µM | 1.78 µM | 3.88 µM | 3.86 µM | 15.4 µM | – | –
O=C(c1ccc2c3c(ccc(C(=O)C(F)(F)F)c13)CC2)C(F)(F)F | – | > 100 µM | – | > 100 µM | – | > 100 µM | – | – | – | > 100 µM | – | > 100 µM | – | > 100 µM | – | > 100 µM | – | > 100 µM | > 100 µM | –
CC(C)Oc1ccc(C(=O)N[C@H](CNC(=O)CN(C)C)Cc2ccc(-c3cn4cccc([C@H](C)O)c4n3)cc2)cc1Cl | 0.213 µM | 13.9 µM | 0.538 µM | 17.9 µM | 0.423 µM | 19.4 µM | – | – | – | – | 0.0372 µM | 14.6 µM | 4 µM | 20.3 µM | 0.0613 µM | 21.6 µM | 11.8 µM | 24.6 µM | 28.8 µM | 10.9 µM
Cc1ccc(NC(=O)c2nc(S(C)=O)oc2-c2ccc(F)cc2)cc1Nc1nccc(-c2cccnc2)n1 (centres undefined) | 7.19 µM | 20.2 µM | – | – | – | – | 3.06 µM | 10.9 µM | 2.95 µM | 8.04 µM | 15.1 µM | 29.2 µM | 1.95 µM | 3.97 µM | 2.1 µM | 4.01 µM | 2.82 µM | 6.25 µM | 25.8 µM | 3.84 µM
CSc1nc2c(c(=O)[nH]1)C(c1ccc(Cl)cc1)C1=C(N2)/C(=C/c2ccc(Cl)cc2)CNC1 (centres undefined) | 2.68 µM | 11.3 µM | 2.11 µM | 5.09 µM | 2.04 µM | 5.54 µM | 2.44 µM | 6.26 µM | 2.38 µM | 5.11 µM | 1.96 µM | 4.43 µM | 2.3 µM | 6.47 µM | 2.86 µM | 10 µM | – | – | 3.27 µM | 1.62 µM
COC(=O)c1ccc(C2SCC(=O)N2NC(=O)C(O)c2ccccc2)cc1 (centres undefined) | > 100 µM | > 100 µM | > 100 µM | > 100 µM | > 100 µM | > 100 µM | – | – | > 100 µM | > 100 µM | > 100 µM | > 100 µM | > 100 µM | > 100 µM | > 100 µM | > 100 µM | > 100 µM | > 100 µM | > 100 µM | > 100 µM
COc1ccc(C(=O)O)c(Cc2ccc3ccccc3c2)c1 | – | > 100 µM | – | > 100 µM | – | – | – | > 100 µM | – | > 100 µM | – | > 100 µM | – | > 100 µM | – | > 100 µM | – | > 100 µM | > 100 µM | –
